Test results as given in US7186695B2 (priority 2001, dated 2007).
“Also recorded” adds a separate entry of the source. Read-outs that look alike come from different tables or passages of the source.

How the values were obtained:
Human bone marrow cells = assay: 12 day bone marrow culture assay, granulocyte/macrophage colonies; assay type: cell-based; conditions: 12 days
Protocol: FIG. 20. Effect of GSAO on Proliferation of bone marrow progenitor cells. Human bone marrow cells were incubated in semi-solid agar containing 20% BCS, […] and 0 to 100 μM GSAA or GSAO for 12 days. Granulocyte/macrophage colonies of 40 or more cells were counted under an inverted microscope. The data points and errors represent the mean and SE of quadruplicate cultures.
GSAO reduced the number of granulocyte/macrophage colonies in a 12 day human bone marrow culture assay with an IC50 of ˜30 μM (FIG. 20). […] Human bone marrow cells (˜5×10^5 cells per mL) were added to semi-solid agar in DMEM containing 20% BCS, 5 ng per mL IL-3 and 0 to 100 μM GSM or GSAO. The cultures were incubated for 12 days at 37° C. and 5% CO2 and clusters of 40 or more cells were counted under an inverted microscope according to Metcalf (1977).

BCE cells = assay: Proliferation and viability of cultured cells, 72 hr, cell count; assay type: cell-based, bovine; conditions: for IC50: Bos taurus, 72 h, BCE
Protocol: FIG. 18. Inhibition of proliferation and reduction in viability of BCE cells by GSAO. 15,000 (part A and B) or 50,000 (part C and D) BCE cells per well were seeded into gelatinised 24-well culture plates and allowed to attach for 24 hr (part A, B and D) or 72 hr (part C). The media was then replaced with DMEM containing 5% BCS and 0 to 1 mM GSAO or GSM and either 1 ng per mL FGF-2 (part A) or 10 ng per mL VEGF (part B). In part D, the media was replaced with DMEM containing 5% BCS and 1 ng per mL FGF-2 and either 10 μM GSAO or GSM. In part C, the media was replaced with DMEM containing 5% BCS and 0 to 1 mM GSAO or GSAA. Cells were cultured for 72 hr in parts A, B and C or for discrete times up to 48 hr in part D and then dispersed and counted. The dotted line in parts A, B and C indicate the cell number in control wells containing DMEM and 5% BCS which represented no to limited proliferation. The dotted line in part D represents no change in cell number over the 48 hr. The data points and errors represent the mean and range of duplicate wells.
(§1) BCE (Folkman et al. 1979), BAE, BxPC-3 (ATCC, Bethesda, Md.), HT1080 (Jiang et al., 1999), 3T3 (ATCC, Bethesda, Md.) and BVSM (Hogg et al., 1997) cells were harvested and cultured as indicated. Cells (0.5 mL of 30,000 or 100,000 cells per mL) were seeded into gelatinized 24-well culture plates (Corning Costar, Corning, N.Y.) in Dulbecco's Modified Eagle's Medium (DMEM, JHR Bioscience, Lenexa, Kans.) containing 10% fetal calf serum (FCS, Intergen Comp., Purchase, N.Y.) and 1% Glutamine Pen-Strep (GPS, Irvine Scientific, Santa Ana, Va.) and allowed to attach for 24 hr in 10% CO2 at 37° C. The media was then replaced with DMEM and 1% GPS containing 0 to 1 mM GSAO or GSAA and either 5% bovine calf serum (BCS, HyClone, Logan, Utah) and 1 ng per mL FGF-2 (Genzyme, Cambridge, Mass.) or 5% BCS and 10 ng per mL VEGF (Genzyme, Cambridge, Mass.) for BCE cells, 5% or 10% BCS for BAE cells, 5% BCS for BVSM cells, and 5% FCS for BxPC-3, HT1080 and 3T3 cells. Cells were cultured for 0 to 72 hr in 10% CO2 at 37° C. then dispersed in trypsin/EDTA (GibcoBRL, Granc Island, N.Y.), resuspended in Coulter balanced electrolyte solution and counted with a Z1 Coulter counter (Coulter Corp., Miami, Fla.). In all experiments there were two control wells containing DMEM with 1% GPS and either 5% BCS for BCE cells, 2% BCS for BAE and BVSM cells, or 2% FCS for BxPC-3, HT1080 and 3T3 cells. These wells represented no to limited proliferation.

BAE cells [1] = system: BAE cells
BxPC-3 cells = assay: Proliferation and viability of cultured cells, 72 hr, cell count; assay type: cell-based, human
Protocol: (§2) FIG. 19. Effect of GSAO on Proliferation of non-endothelial cells. 15,000 BxPC-3 (part A), HT1080 (part B), 3T3 (part C) or BVSM (part D) cells per well were seeded into gelatinised 24-well culture plates and allowed to attach for 24 hr. The media was then replaced with DMEM containing 0 to 1 mM GSAO or GSAA and either 5% BCS (part D) or 5% FCS (parts A, B and C). Cells were cultured for 72 hr and then dispersed and counted. The dotted lines indicate the cell number in control wells containing DMEM and 2% BCS (part D) or 2% FCS (parts A, B and C) which represented no to limited proliferation. The data points and errors represent the mean and range of duplicate wells.
as §1

HT1080 cells = assay: as above; assay type: cell-based, human
Protocol: as §2, §1

3T3 fibroblasts = assay: as above; assay type: cell-based, murine
Protocol: as §2, §1

[2] = system: adjuvant-induced arthritis, rat ankles; conditions: in vivo
BAE cells [3] = assay: cells; conditions: Bos taurus, Endothelial cell, 24 h, read-out: IC50 for viability
Human T cells (A3.01) = assay: Membrane permeability, tritiated GSAO in cytosol; assay type: in vitro ADME; conditions: 50 μM GSAO
Protocol: Human T cells (A3.01) or adherent BAE cells were incubated with complete medium containing 50 μM GSAO and ˜100,000 counts per minute of tritiated GSAO for 1 or 72 hours. Tritiated GSAO was prepared exactly as described for GSAO except that glycine-2-^3H-glutathione (NEN, Boston, Mass.) was used in place of cold glutathione. The cells were washed and lysed by two cycles of freezing and thawing. The cytosolic constituents were collected by differential centrifugation (Ausbel et al., 2000) and the tritiated GSAO was measured. Only 0.5% of the total tritiated GSAO was found in the T cell cytosol and 0.04% in the BAE cytosol after 1 hour. Moreover, only 4.5% of the GSAO penetrated the T cell membrane after 72 hours of culture.

## N[C@@H](CCC(=O)N[C@@H](CSCC(=O)Nc1ccc([As](=O)(O)O)cc1)C(=O)NCC(=O)O)C(=O)O [GSAA, 4-(N-(S-glutathionylacetyl)amino)phenylarsonic acid, reference compound]
Human bone marrow cells; up to a concentration of 100 μM
  effect on colony numbers: no effect
BCE cells; 0 to 1 mM
  effect on viability of BCE cells: no significant effect
BCE cells; highest concentration used, 1 mM
  effect on proliferation of BCE cells: only a marginal effect
BAE cells [1]
  effect on BAE viability: no significant effect
BxPC-3 cells; BxPC-3, up to a concentration of 1 mM
  effect on proliferation or viability: no significant effect
HT1080 cells; HT1080, up to a concentration of 1 mM
  effect on proliferation or viability: no significant effect
3T3 fibroblasts; 3T3, up to a concentration of 1 mM
  effect on proliferation or viability: no significant effect

## NC(CCC(=O)NC(CSCC(=O)Nc1ccc([As]=O)cc1)C(=O)NCC(=O)O)C(=O)O (stereo not shown) [GSAO, 4-(N-(S-glutathionylacetyl)amino)-phenylarsenoxide]
Human bone marrow cells; Homo sapiens, Bone marrow cell, 288 h, semi-solid agar, 20% BCS, IL-3, read-out: IC50 for reduction of the number of granulocyte/macrophage colonies
  IC50: ~30 µM
[2]
  pannus formation: significantly reduced; also recorded: little to no pannus formation
  periarticular inflammation (density of inflammatory cells): significantly reduced; also recorded: almost no inflammatory cells
  signs of new bone formation (periosteal reaction): none
BAE cells [3]
  IC50: ~100 µM
BCE cells; 10 μM GSAO, after 8 hours
  decrease in viability of BCE cells over time: no decrease in viability
BCE cells; 5% BCS + 1 ng/mL FGF-2, 72 hr, read-out: Proliferation IC50
  IC50: ~0.1 µM
BCE cells; 5% BCS + 1 ng/mL FGF-2, >90% confluent, 72 hr, read-out: Viability IC50
  IC50: ~10 µM
BCE cells; 5% BCS + 10 ng/mL VEGF, 72 hr, read-out: Proliferation IC50
  IC50: ~0.05 µM
BCE cells; 5% BCS + 10 ng/mL VEGF, >90% confluent, 72 hr, read-out: Viability IC50
  IC50: ~3 µM
BxPC-3 cells; BxPc3, 5% FCS, 72 hr
  Proliferation IC50: did not affect the proliferation; also recorded: No effect
BxPC-3 cells; Homo sapiens, BXPC-3, BxPc3, 5% FCS, 72 hr
  IC50: ~40 µM
HT1080 cells; HT1080, 5% FCS, 72 hr
  Proliferation IC50: did not affect the proliferation; also recorded: No effect
HT1080 cells; Homo sapiens, HT-1080, HT1080, 5% FCS, 72 hr
  IC50: ~40 µM
Human T cells (A3.01); 1 hour
  total tritiated GSAO found in the cytosol: 0.5%
Human T cells (A3.01); 72 hours of culture
  GSAO that penetrated the T cell membrane: 4.5%
3T3 fibroblasts; 3T3, 5% FCS, 72 hr
  Proliferation IC50: did not affect the proliferation; also recorded: No effect
3T3 fibroblasts; Mus musculus, Fibroblast, 3T3, 5% FCS, 72 hr
  IC50: ~40 µM
